For data set [1], the system named is Arabidopsis thaliana, Brassica napus and Hordeum vulgare seedlings. Briefly: sedoheptulose accumulation in seedling extracts after exposure. Format: in vivo. As to conditions: extracts after exposure of seedlings of the three species. The source says:
The finding that AtDHQS1 is not the target of 7dSh, but that the overexpression of AtDHQS1 (-GFP) causes partial tolerance to 7dSh in Arabidopsis seems contradictory, and is in stark contrast to the findings of the prior art. Without being bound to theory, overexpression of AtDHQS1 could lead to a metabolic imbalance in the plant, and thereby could indirectly influence the amount, constitution, intracellular localization, biochemical and physiological activity of counteracting enzymes or proteins, one of which potentially being the true target for 7dSh. This hypothesis is in agreement with a recent finding that a strong accumulation of sedoheptulose was detectable in the extracts after exposure of Arabidopsis thaliana, Brassica napus and Hordeum vulgare seedlings to 7dSh. The accumulation was up to 60 times higher than in the untreated seedlings of the three species. Sedoheptulose is a ketoheptose - a monosaccharide with seven carbon atoms and a ketone functional group and one of the few heptoses found in nature. Sedoheptulose is not a metabolite of the shikimate pathway and can in no way serve as substrate for AtDHQS1.

The subject of data set [2] is Arabidopsis wild type seedlings or transgenic lines overexpressing AtDHQS1-GFP or AtDHQS2-GFP. Briefly: comparative root growth experiments on growth medium. Conditions: 250 µM. The format is in vivo, Arabidopsis thaliana. How it is done:
(§1) (A) Schematic representation of mDHSQ1 and pDHQS1 both containing a C-terminal (His)6 tag for purification after heterologous expression of the recombinant proteins in E.coli. aa: amino acid. (B) Relative activity of mDHQS1 (left) and pDHQS1 (right) in the presence of the indicated concentrations of 7dSh. The activity in the absence of 7dSh was set to 1. […] (A) MST fluorescence spectrum of RED dye-labelled mAtDHQS1 (50 nM) in the absence of DAHP (blue line, marked as line 1) or in the presence of 500 µM DAHP (green line, marked as line 2). […] (B) MST fluorescence spectrum of RED dye-labelled mAtDHQS1 (50 nM) in the absence of 7dSh (blue line marked as line 1) or in the presence of 500 µM 7dSh (green line marked as line 2). No downward shift is detectable, showing that there is no binding. (C) MST fluorescence spectrum of RED dye-labelled mAtDHQS1 (50 nM) in the absence of 7dSh and DAHP (blue line, marked as line 1), in the presence of 250 µM DAHP (green line marked as line 2) or 250 µM DAHP and 250 µM 7dSh (red line marked as line 3). […] (A) Growth of 3-days-old wild type plants (Col-0) or two independent transgenic lines each ectopically overexpressing either EGFP-tagged AtDHQS1 (1-1, 1-2) or EGFP-tagged AtDHQS2 (2-1, 2-2) after 3 days on control plates (mock) or on plates containing 250 µM 7dSh. (B) As in (A) but the root length was quantified. n = 10 different, lower case letters mean statistically significant differences between the data sets (ANOVA test). (C) Subcellular localization of EGFP-tagged AtDHQS1 (lines 1-1 and 1-2) or EGFP-tagged AtDHQS2 (lines 2-1 and 2-2) in chloroplasts (red fluorescence) of 3-days-old transgenic Arabidopsis plants. […] (Left) relative AtDHQS1 transcript levels in the indicated transgenic Arabidopsis lines as determined by qRT-PCR using AtDHQS1 gene-specific primers. AtDHQS1 transcript levels are about ten times higher than in wild type (Col-0). (Right) relative AtDHQS2 transcript levels in the indicated transgenic Arabidopsis lines as determined by qRT-PCR using AtDHQS2 gene-specific primers. […]

The target in the next data set is T1, pAtDHQS1 (Arabidopsis thaliana, UniProt Q8VYV7).
T1 construct: a version that still has the 61 amino acid long transit peptide for plastid import (pAtDHQS1); (His)6 (C); made in house; host or cells: E. coli
T1 sequence (Q8VYV7 59-442): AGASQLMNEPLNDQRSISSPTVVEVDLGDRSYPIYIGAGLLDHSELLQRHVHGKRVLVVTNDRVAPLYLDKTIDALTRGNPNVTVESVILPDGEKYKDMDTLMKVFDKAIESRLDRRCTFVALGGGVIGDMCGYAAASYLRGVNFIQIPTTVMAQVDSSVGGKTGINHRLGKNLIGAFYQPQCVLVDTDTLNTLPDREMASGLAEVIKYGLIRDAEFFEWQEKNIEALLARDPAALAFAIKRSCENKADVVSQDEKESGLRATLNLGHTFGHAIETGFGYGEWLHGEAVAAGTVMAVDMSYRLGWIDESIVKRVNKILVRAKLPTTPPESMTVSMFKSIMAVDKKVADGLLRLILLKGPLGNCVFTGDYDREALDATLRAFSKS
In words: enzymatic assay with purified recombinant AtDHQS1 still containing the transit peptide. Format: biochemical. As to conditions: 100 to 1000 µM; 50 ng purified recombinant enzyme; Figure 1B. On the procedure: (§2) (A) Schematic representation of mDHSQ1 and pDHQS1 both containing a C-terminal (His)6 tag for purification after heterologous expression of the recombinant proteins in E.coli. aa: amino acid. (B) Relative activity of mDHQS1 (left) and pDHQS1 (right) in the presence of the indicated concentrations of 7dSh. The activity in the absence of 7dSh was set to 1. […] (A) MST fluorescence spectrum of RED dye-labelled mAtDHQS1 (50 nM) in the absence of DAHP (blue line, marked as line 1) or in the presence of 500 µM DAHP (green line, marked as line 2). […] (B) MST fluorescence spectrum of RED dye-labelled mAtDHQS1 (50 nM) in the absence of 7dSh (blue line marked as line 1) or in the presence of 500 µM 7dSh (green line marked as line 2). […] (C) MST fluorescence spectrum of RED dye-labelled mAtDHQS1 (50 nM) in the absence of 7dSh and DAHP (blue line, marked as line 1), in the presence of 250 µM DAHP (green line marked as line 2) or 250 µM DAHP and 250 µM 7dSh (red line marked as line 3). […] (B) As in (A) but the root length was quantified. n = 10 different, lower case letters mean statistically significant differences between the data sets (ANOVA test). (C) Subcellular localization of EGFP-tagged AtDHQS1 (lines 1-1 and 1-2) or EGFP-tagged AtDHQS2 (lines 2-1 and 2-2) in chloroplasts (red fluorescence) of 3-days-old transgenic Arabidopsis plants. […]

The target in data set [3] is T2, mAtDHQS1 (Arabidopsis thaliana, UniProt Q8VYV7).
T2 construct: The mature i.e. biologically relevant enzyme (mAtDHQS1) with 381 amino acids; (His)6 (C); made in house; host or cells: E. coli
T2 sequence (Q8VYV7 59-442): T1 sequence (Q8VYV7 59-442)
Briefly: enzymatic assay with purified recombinant mature AtDHQS1. Format: biochemical. Conditions: 100 to 1000 µM; 50 ng purified recombinant enzyme; Figure 1B. On the procedure: as §2

The target in data set [4] is T2, mAtDHQS1. Briefly: MicroScale Thermophoresis (MST) binding and competition. On the procedure: as §1
Background: MST reads how a fluorescent partner responds to local heating, with and without ligand.

In data set [5] the test system is thale cress (Arabidopsis thaliana), rapeseed/canola (Brassica napus), barley (Hordeum vulgare), maize (Zea mays), red-root amaranth (Amaranthus retroflexus) …. Briefly: herbicidal effect in growth medium on model and crop plants and weeds (root growth). The format is in vivo. Conditions: tested in parallel.
Substrate in data set [6]: O=C(O)C(=O)C[C@@H](O)[C@H](O)[C@H](O)COP(=O)(O)O
In words: enzymatic assay with purified recombinant mature AtDHQS1. Format: biochemical, Arabidopsis thaliana. As to conditions: other: substrate DAHP; mAtDHQS1. On the procedure:
as §2

Substrate in data set [7]: O=C(O)C(=O)C[C@@H](O)[C@H](O)[C@H](O)COP(=O)(O)O
Briefly: enzymatic assay with purified recombinant AtDHQS1 still containing the transit peptide. Format: biochemical, Arabidopsis thaliana. Conditions: other: substrate DAHP; pAtDHQS1. On the procedure:
as §2

Setting [8] is: 3-days-old seedlings, two independent lines.

“Also recorded” adds a separate entry of the source.

With `C[C@@H](O)[C@@H](O)[C@@H](O)[C@H](O)C(=O)CO` [7dSh, 7-deoxy-sedoheptulose], the accumulation of sedoheptulose entry in data set [1] is listed as “up to 60 times higher than in the untreated seedlings”. In data set [2] (3-days-old Arabidopsis wild type (Col-0) seedlings, 3 days), the “root growth of wild type seedlings” value was “completely inhibited”. Moreover, in data set [2] (setting [8]), the “tolerance of seedlings of AtDHQS2-GFP transgenic lines” value is given as “no tolerance” and the “tolerance of seedlings of transgenic lines overexpressing AtDHQS1-GFP” value is reported as “partial but not complete tolerance”. The “effect on the activity of pAtDHQS1” value at pAtDHQS1 is reported as “not inhibited; also recorded: no effect”. Further, the “effect on the activity of mAtDHQS1” value at mAtDHQS1 [3] is “not inhibited; also recorded: no effect”. For the same molecule, on mAtDHQS1 [4] (RED dye-labelled mAtDHQS1 (50 nM), 250 µM DAHP and 250 µM 7dSh, Fig. 2 C), the “competition with DAHP for binding to mAtDHQS1 (MST)” value is recorded as “no competition; also recorded: not able to displace DAHP”. Moreover, the “binding to mAtDHQS1 (MST)” value on mAtDHQS1 [4] (RED dye-labelled mAtDHQS1 (50 nM), 500 µM ligand, Fig. 2 A/B) was “no binding; also recorded: no interaction”.

For the molecule `O=C(O)C(=O)C[C@@H](O)[C@H](O)[C@H](O)COP(=O)(O)O` [DAHP, 3-deoxy-D-arabino-heptulosonate-7-phosphate, reference compound], the Kd at mAtDHQS1 [4] amounted to 33 µM.

`O=C(O)CNCP(=O)(O)O` [glyphosate]: the “effective concentrations compared with 7dSh” value in data set [5] was “comparable”.

B1: mAtDHQS1 (Arabidopsis thaliana) (protein)
chain: T1 sequence (Q8VYV7 59-442)
notes: The mature i.e. biologically relevant enzyme (mAtDHQS1) with 381 amino acids; (His)6 (C); made in house; host or cells: E. coli
For the molecule B1, the Km in data set [6] was 8.3 µM.

B2: pAtDHQS1 (Arabidopsis thaliana) (protein)
chain: T1 sequence (Q8VYV7 59-442)
notes: a version that still has the 61 amino acid long transit peptide for plastid import (pAtDHQS1); (His)6 (C); made in house; host or cells: E. coli
For the molecule B2, the Km in data set [7] is reported as 2.9 µM.

As usually defined, the Kd is the constant that tells how readily two partners part at equilibrium. High values mean a looser complex, low ones a tighter complex. For orientation: Km means the substrate concentration at which the rate is half of its maximum.

The values are drawn from patent EP4516912A1, “HERBICIDE RESISTANT PLANTS” (Eberhard-Karls-Universität Tübingen, priority 2023, dated 2025).
